Experimental data: patent publication US20100266569A1, “PROSTATIC ACID PHOSPHATASE FOR THE TREATMENT OF PAIN” (priority 2007, published 2010)
Entries after “also recorded” stand apart in the source; their conditions may differ.

Key:
[1] = test system: wild-type C57BL/6 male mice; experiment: Noxious thermal sensitivity, Hargreaves method (paw withdrawal latency to radiant heat) after i.t. injection; format: in vivo, mouse
Method: Behavior. C57BL/6 male mice, 2-3 months old, were purchased from Jackson Laboratories (Bar Harbor, Maine, United States of America) for all behavioral experiments involving PAP protein injections. All mice were acclimated to the testing room, equipment and experimenter for one day before behavioral testing. The experimenter was blind to genotype and drug treatment during behavioral testing.
Thermal sensitivity was measured by heating one hindpaw with a Plantar Test apparatus (IITC) following the Hargreaves method (Hargreaves et al., 1988). The radiant heat source intensity was calibrated so that a paw withdrawal reflex was evoked in ˜10 seconds, on average, in wild-type C57BL/6 mice. Cutoff time was 20 s. One measurement was taken from each paw per day to determine paw withdrawal latency. To perform the tail immersion assay, mice were gently restrained in a towel and the distal one-third of the tail was immersed in 46.5° C. water. Latency to withdrawal the tail was measured once per mouse. Mechanical sensitivity was measured using semi-rigid tips attached to an Electronic von Frey apparatus (IITC) as described elsewhere (Cunha et al., 2004; Inoue et al., 2004). Three measurements were taken from each paw (separated at 5 min. intervals) then averaged to determine paw withdrawal threshold in grams.
Intrathecal injections. hPAP, bPAP and vehicle controls were injected into the lumbar region of unanesthetized mice as described (Fairbanks, 2003).
Intrathecal injection was chosen because PAP protein is unlikely to reach spinal cord tissue if injected intraperitoneally.

[2] = test system: wild-type C57BL/6 male mice; format: in vivo, mouse
Source text: Signs of immune and microglial activation can be monitored using molecular markers.

[3] = target: T1, A1-adenosine receptor (A1R) (Mus musculus, UniProt Q60612); experiment: Antagonism of hPAP anti-nociception by the A1R antagonist CPX, CFA model; format: in vivo
T1 construct: endogenous in cells; host or cells: wild-type C57BL/6 mice, in vivo (CPX 1 mg/kg i.p.)
T1 sequence (Q60612 1-326): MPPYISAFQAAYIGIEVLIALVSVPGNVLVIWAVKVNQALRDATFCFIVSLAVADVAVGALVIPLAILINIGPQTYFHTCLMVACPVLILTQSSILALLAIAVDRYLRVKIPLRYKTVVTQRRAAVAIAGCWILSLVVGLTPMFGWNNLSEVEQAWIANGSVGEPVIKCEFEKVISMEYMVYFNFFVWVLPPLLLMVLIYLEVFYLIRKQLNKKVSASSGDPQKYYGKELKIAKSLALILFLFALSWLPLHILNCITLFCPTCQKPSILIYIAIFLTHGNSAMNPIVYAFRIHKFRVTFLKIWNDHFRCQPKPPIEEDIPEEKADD
Method: Wild-type mice were tested for noxious thermal (FIG. 29A) and mechanical (FIG. 29B) sensitivity before (baseline, BL) and following injection of Complete Freund's Adjuvant (CFA-arrow) into one hindpaw (inflamed paw, open circles or dark squares). The non-inflamed hindpaw served as control (shaded circles or squares). All mice were injected with active hPAP (hPAP-arrow; 250 mU, i.t.). Two days later, half the mice were injected with vehicle (CPXN-arrow, circles; intraperitoneal (i.p.); 1 h before behavioral measurements) while the other half were injected with 8-cyclopentyl-1,3-dipropylxanthine (CPX/V-arrow, squares; 1 mg/kg i.p.; 1 h before behavioral measurements). […] All data are presented as means±SEM.
The responses of wild-type and A1R^−/− mice were also tested using the CFA chronic inflammatory pain model and the SNI neuropathic pain model.

PAP (bPAP, mPAP) = experiment: Fluorometric acid phosphatase assay (DiFMUP, EnzChek); format: biochemical, bovine; mouse; settings: L-tartrate 10 mM
Method: FIG. 3 is a set of bar graphs showing a fluorometric assay to quantify acid phosphatase activity. […] Right-hand Bar Graph: Mouse prostatic acid phosphatase (mPAP) assayed from transfected cell lysates. Activity is reduced by the PAP inhibitor L-tartrate (10 mM). These assays were performed following the manufacturers protocol (EnzChek Assay, Invitrogen, Carlsbad, Calif., United States of America) and quantified using a fluorescent microplate reader.
A way to quantify PAP activity was needed so that reproducible amounts of active PAP protein could be added to cultured cells or injected into live mice for the experiments described below. To accomplish this, two well-established methods were tested for measuring PAP activity: 1) a colorimetric assay using para-nitrophenyl phosphate (p-NPP) hydrolysis; and 2) a fluorometric assay using difluoro-4-methylumbelliferyl phosphate (DiFMUP) hydrolysis (commercially available as the EnzChek Acid Phosphatase kit from Invitrogen, Carlsbad, Calif., United States of America). Based on direct comparisons, it was determined that the fluorometric assay was much more sensitive than p-NPP for quantification of PAP activity. […] This fluorometric assay can thus be used to quantify phosphatase activity of pure PAP protein and PAP from cell lysates.

Rat1 cells = experiment: LPA-evoked calcium signaling (Fura2-AM) with LPA pre-incubated with bPAP; format: cell-based, rat; settings: 1 μM LPA incubated 1.5 hr at 37° C. with or without 0.2 mU bPAP, applied 1 minute
Method: (“a” in FIG. 4). In parallel, a second tube was incubated containing 1 μM LPA (without bPAP) for 1.5 hr at 37° C. (“b” in FIG. 4). Rat1 cells were loaded with the calcium-sensitive dye Fura2-acetoxymethyl (AM) ester (Dong et al., 2001), and (LPA+bPAP) applied to these cells for 1 minute (see “a” in FIG. 4). Following a brief washout period, (LPA) was applied to the cells for 1 minute (see “b” in FIG. 4).

[4] = test system: wild-type C57BL/6 male mice; experiment: LPA-evoked sensitization in vivo (i.t. LPA with or without bPAP); settings: 1 nmol LPA i.t., alone or incubated with 20 μU bPAP 10 min at 37° C.
Method: First, mechanical sensitivity was measured with an electronic von Frey apparatus (IITC). Then, thermal sensitivity was measured using the Hargreaves method (radiant heating of hindpaw; IITC Plantar Test Apparatus).

OC[C@H]1O[C@@H](n2cnc3c(NC4CCCC4)ncnc32)[C@H](O)[C@@H]1O [CPA, N^6-cyclopentyladenosine]
duration of effect on paw withdrawal latency, in words ([1]; i.t., compared with hPAP): short-term effects (lasting hours not days) | effect on noxious thermal sensitivity / paw withdrawal latency ([1]; uninjured wild-type mice, i.t. injection (bPAP 20 μU; hPAP 1.3 mg/mL or 250 mU; ALP 25,000 mU)): dose-dependent increases in paw withdrawal latency | motor paralysis ([2]; two highest i.t. doses (dose range 0.0005 nmol-5 nmol)): transient paralysis; also recorded: fore- and hindlimb paralysis

CCCn1c(=O)c2[nH]c(C3CCCC3)nc2n(CCC)c1=O [CPX, 8-cyclopentyl-1,3-dipropylxanthine]
effect on thermal or mechanical sensitivity after hPAP effects wore off ([3]; 1 mg/kg i.p. on day 9): did not affect thermal or mechanical sensitivity | effect on anti-nociceptive effects of hPAP ([3]; 1 mg/kg i.p., two days after hPAP 250 mU i.t., 1 h before behavioral measurements): transiently reversed the anti-nociceptive effects of hPAP in control and inflamed hindpaws; also recorded: transiently antagonized all anti-nociceptive effects of hPAP

O=C(O)[C@H](O)[C@@H](O)C(=O)O [L-tartrate]
effect on PAP phosphatase activity (PAP (bPAP, mPAP)): inhibited; also recorded: reduced

CN1CC[C@]23c4c5ccc(O)c4O[C@H]2[C@@H](O)C=C[C@H]3[C@H]1C5.O=S(=O)(O)O [morphine, morphine sulfate]
increase in paw withdrawal latency above baseline ([1]; single i.t. injection, highest doses): 62.2%±9.9% | side effects ([2]; mouse, in vivo): Side-effects were observed at the two highest doses

lysophosphatidic acid [LPA]
change of intracellular calcium levels (Rat1 cells): dramatically changed | behavioral sensitization (mechanical allodynia, thermal hyperalgesia) [4]: caused long-lasting mechanical allodynia and thermal hyperalgesia
